Test results reported in patent US6288091A, “Antiherpes virus compounds and methods for their preparation and use” (Boehringer Ingelheim Ltd., priority 1999, dated 2001).
Like-named read-outs stand apart in the source and are kept apart here.

Key:
HSV-1 KOS = experiment: Cutaneous HSV-1 infection in the SKH-1 hairless mouse model, oral administration; type: in vivo; conditions: Human alphaherpesvirus 1, Group 1 Table 1 entries, tid for five days, commencing three hours post infection, in 0.03 N aqueous HCl, read-out: ED50, reduction of viral pathology
Experimental: In addition to the above results, certain Group 1 compounds have been tested against cutaneous HSV-1 infection in the SKH-1 hairless mouse model (P. H. Lee et al., supra). In this instance, viral pathology was monitored using a subjective scoring system and infection was initiated by spreading a viral inoculum (HSV-1 KOS, 7.3×10^7 PFU) over punctured skin.
Still furthermore, oral doses of Entry No.29 of Group 1 at 50 mg/kg/day and 100 mg/kg/day were active in the preceding mouse model when treatment was initiated at 65 h post inoculation. Also, topical treatment of cutaneous HSV-2 infections, namely HG-52 or the acyclovir resistant HSV-2 strain VK-1 (C. S. Crumpacker, New Engl. J. Med., 1989, 320, 293) infections, in the mouse model with the above noted 3% w/w formulation of Entry No. 29 was therapeutically effective, producing a 58 to 72% reduction of viral pathology.

HCMV (strain AD169) = experiment: Inhibition of HCMV replication, ELISA assay (Hs-68 cells); type: cell-based, Human Cytomegalovirus (HCMV); conditions: read-out: ELISA CMV EC50
Outline: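 Hs-68 fibroblasts at 80–90% confluency infected with HCMV AD169 at MOI 0.01 PFU/cell for 2 h, washed, then cultured 8 days at 37 °C with test compound in DMEM/5% FBS. Late protein p28 detected by ELISA (mAb UL99, HRP/OPD, 450 nm); EC50 from % inhibition of replication.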

[1] = Inhibition of HCMV replication, plaque reduction assay (PRA, Hs-68 cells); type: cell-based, Human Cytomegalovirus (HCMV); conditions: human
Outline: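 Hs-68 monolayers (80–90% confluent) were infected with ~50 PFU HCMV AD169 for 2 h at 37°, then given compound in DMEM/5% inactivated FBS, refreshed after 4 days and kept 4 more days. Plaques were counted after formaldehyde fixation and crystal violet staining. EC50 derives from percent plaque reduction versus untreated wells.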

[2] = Human betaherpesvirus 5, AD169, Hs68, Group 1 Table 1 entries
[3] = Group 1 Table 2 entries, read-out: Cytotoxic at this concentration (footnote, PRA CMV)
[4] = Human betaherpesvirus 5, AD169, Hs68, Group 1 Table 2 entries

## Nc1nc(-c2ccc(NC(=O)CN(Cc3ccccc3)C(=O)c3ccncc3)cc2)cs1 [Example 29]
HSV-1 KOS
  ED50: 56 mg/kg
HCMV (strain AD169); [2]
  EC50: 12 µM

## Nc1nc(-c2ccc(NC(=O)CN(Cc3ccccc3)C(=O)C3CCCC3)cc2)cs1 [Example 36]
HSV-1 KOS
  ED50: 51 mg/kg
HCMV (strain AD169); [2]
  EC50: 2.8 µM

## C[C@@H](c1ccccc1)N(CC(=O)Nc1ccc(-c2csc(N)n2)cc1)C(=O)c1ccncc1 [Example 58]
HSV-1 KOS
  ED50: 31 mg/kg
HCMV (strain AD169); [2]
  EC50: 5.2 µM

## Nc1nc(-c2ccc(NC(=O)CCNCc3cccc(F)c3)cc2)cs1 [Example 4]
[1]; [3]
  MCC at 192 h: 3.7 µM
HCMV (strain AD169); [4]
  EC50: 6.6 µM

## CCC(CC)C(=O)N(CC(=O)Nc1ccc(-c2csc(N)n2)cc1)Cc1ccccc1 [Example 104]
[1]; Group 1 Table 1 entries, read-out: Cytotoxic at this concentration (footnote *, PRA CMV)
  MCC at 192 h: 18 µM
HCMV (strain AD169); [2]
  EC50: 1.9 µM

## Nc1nc(-c2ccc(NC(=O)CN(Cc3ccncc3)C(=O)C3CCCCC3)cc2)cs1 [Example 49, N-{2-{{4-(2-amino-4-thiazolyl)phenyl}amino}-2-oxoethyl}-N-(4-pyridinylmethyl)cyclohexanecarboxamide]
HSV-1 KOS
  ED50: 129 mg/kg
HCMV (strain AD169); [2]
  EC50: 25 µM

## Nc1nc(-c2ccc(NC(=O)CCNCC3CCCCC3)cc2)cs1 [Example 22]
[1]; [3]
  MCC at 192 h: 6 µM
HCMV (strain AD169); [4]
  EC50: 4.8 µM
